Here are results for 7 molecules from US20230390319A1, “INTERFERON GENE STIMULATOR COMPOSITION COMPRISING INDOLIZINE DERIVATIVE AS ACTIVE INGREDIENT” (AJOU UNIVERSITY INDUSTRY-ACADEMIC COOPERATION FOUNDATION, priority 2020, published 2023).

The test system of one data set is ISRE reporter signal. As to the kind of experiment: ISRE luciferase reporter assay, THP-1 cells co-treated with compound and cGAMP. Format: cell-based, Human. As to conditions: THP-1 cells, 20 μM of each compound, co-treated with cGAMP (1 μg/ml), 24 hours. The method, then:
(§1) Human monocytic THP-1 wild-type (WT) and STING knockout (KO) cell lines were obtained from InvivoGen. Cells were cultured in 1×RPMI 1640 medium containing 10% fetal bovine serum (FBS, Hyclone), 2.05 mM L-glutamine (Hyclone) and 1% penicillin (Corning) in a humidified incubator at 37° C. under 5% CO2.
To confirm immune responses, THP-1 cells were placed in 384-well plates (Grenier), and treated with each compound and cGAMP (1 μg/ml), and after 24 hours, ISRE activity was analyzed. QUANTI-Luc assay (InvivoGen) was performed using the cell culture supernatant to confirm the luciferase reporter gene signal. Fluorescent signals were measured using a TECAN micro plate reader SPARK, and the results were normalized to DMSO control.
(§2) THP-1 cells were co-treated with each of 86 indolizine derivatives and a very small amount of cGAMP (1 μg/ml), the immune response of the THP-1 cells was examined by ISRE reporter assay, and the cytotoxicity of co-treatment was also evaluated (Table 1). All results were compared by normalization to the reporter assay results obtained by treatment with cGAMP alone. […] Thus, Compound 42 was used in subsequent experiments.
A general note: In a reporter assay the amount or activity of a reporter protein is the signal.

The next data set deals with THP-1 cells. As to the kind of experiment: Cell viability assay (CellTiter Clo) in THP-1 cells. Format: cell-based, Human. To be noted: THP-1 cells, 20 μM of each compound, co-treated with cGAMP (1 μg/ml). The method, then:
as §1
Cells were analyzed using CellTiter Clo (CTG, Promega). […] was measured using a TECAN micro plate reader SPARK. Results were normalized to DMSO control.
as §2

For the molecule `COc1ccc(-c2cc(C(C)=O)n3ccc(C(C)=O)cc23)cc1` [Compound 81], the “Normalized RU (relative unit of ISRE reporter signal)” value in the data set with ISRE reporter signal amounted to 2.27. Moreover, the Normalized cell viability with THP-1 cells worked out at 1.17.

For the molecule `CC(=O)c1ccn2c(C(C)=O)cc(-c3ccc(N(C)C)cc3)c2c1` [Compound 82], the “Normalized RU (relative unit of ISRE reporter signal)” value in the data set on ISRE reporter signal is listed as 2.57. Besides, the Normalized cell viability in the data set with THP-1 cells came to 1.16.

On to `CC(=O)c1cc(-c2ccc(C(F)(F)F)cc2)c2ccccn12` [Compound 83], for which the “Normalized RU (relative unit of ISRE reporter signal)” value in the data set on ISRE reporter signal was determined as 0.98. Also, in the data set on THP-1 cells, the Normalized cell viability is listed as 1.22.

In the case of `CC(=O)c1ccc(-c2cc(C(C)=O)n3ccccc23)cc1` [Compound 84], the “Normalized RU (relative unit of ISRE reporter signal)” value in the data set on ISRE reporter signal turned out to be 2.37. In addition, in the data set with THP-1 cells, the Normalized cell viability was 1.10.

For the molecule `CC(=O)c1cc(-c2ccccc2)c2ccccn12` [Compound 85], in the data set with ISRE reporter signal, the “Normalized RU (relative unit of ISRE reporter signal)” value was determined as 2.90. Moreover, in the data set on THP-1 cells, the Normalized cell viability is 1.22.

Regarding `COc1ccc(-c2cc(C(C)=O)n3ccccc23)cc1` [Compound 86], the “Normalized RU (relative unit of ISRE reporter signal)” value in the data set with ISRE reporter signal was determined as 2.46. The Normalized cell viability with THP-1 cells is reported as 1.22.

Regarding `CC(=O)c1cc(-c2ccc(N(C)C)cc2)c2ccccn12` [Compound 87], the “Normalized RU (relative unit of ISRE reporter signal)” value in the data set on ISRE reporter signal is listed as 2.59. In addition, the Normalized cell viability in the data set with THP-1 cells amounted to 1.30.
